From patent publication US12077503B2, “Substituted cyclic amides and their use as herbicides” (FMC CORPORATION, priority 2015, dated 2024)

Key:
Type in all cases: in vivo
corn (Zea mays) = assay: Test A postemergence; details: Zea mays, post-emergence, 240 h, Postemergence
How it was run: (§1)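 Compounds were formulated in a non-phytotoxic solvent mixture with surfactant and applied as a preemergence directed soil spray after seeding, or sprayed postemergence over plants 2 to 10 cm tall at the one- to two-leaf stage. Evaluation after about 10 d compared treated with untreated controls, using a scale from 0 (no effect) to 100 (complete control).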

[1] = tested on: pigweed (Amaranthus retroflexus); assay: Test A postemergence; details: Amaranthus retroflexus, post-emergence, 240 h, Postemergence
How it was run: as §1

[2] = tested on: ryegrass, Italian (Italian ryegrass, Lolium multiflorum); assay: Test A postemergence; details: Lolium multiflorum, post-emergence, 240 h, Postemergence
How it was run: as §1

[3] = tested on: giant foxtail (Setaria faberii); assay: Test A postemergence; details: Setaria faberi, post-emergence, 240 h, Postemergence
How it was run: as §1

[4] = tested on: wheat (Triticum aestivum); assay: Test A postemergence; details: Triticum aestivum, post-emergence, 240 h, Postemergence
How it was run: as §1

[5] = tested on: barnyardgrass (Echinochloa crus-galli); assay: Test A postemergence; details: Echinochloa crus-galli, post-emergence, 240 h, Postemergence
How it was run: as §1

Kochia (Kochia scoparia) [6] = assay: Test A postemergence; details: Bassia scoparia, post-emergence, 240 h, Postemergence
How it was run: as §1

[7] = tested on: Galium (catchweed bedstraw, Galium aparine); assay: Test A postemergence; details: Galium, post-emergence, 240 h, Postemergence
How it was run: as §1

[8] = tested on: blackgrass (Alopecurus myosuroides); assay: Test A postemergence; details: Alopecurus myosuroides, post-emergence, 240 h, Postemergence
How it was run: as §1

[9] = tested on: ragweed (common ragweed, Ambrosia elatior); assay: Test A postemergence; details: Ambrosia artemisiifolia, post-emergence, 240 h, Postemergence
How it was run: as §1

[10] = tested on: pigweed (Amaranthus retroflexus); assay: Test A preemergence; details: Amaranthus retroflexus, pre-emergence, 240 h, Preemergence
[11] = tested on: ryegrass, Italian (Italian ryegrass, Lolium multiflorum); assay: Test A preemergence; details: Lolium multiflorum, pre-emergence, 240 h, Preemergence
How it was run: as §1

[12] = tested on: giant foxtail (Setaria faberii); assay: Test A preemergence; details: Setaria faberi, pre-emergence, 240 h, Preemergence
How it was run: as §1

[13] = tested on: barnyardgrass (Echinochloa crus-galli); assay: Test A preemergence; details: Echinochloa crus-galli, pre-emergence, 240 h, Preemergence
How it was run: as §1

Kochia (Kochia scoparia) [14] = assay: Test A preemergence; details: Bassia scoparia, pre-emergence, 240 h, Preemergence
How it was run: as §1

[15] = tested on: ragweed (common ragweed, Ambrosia elatior); assay: Test A preemergence; details: Ambrosia artemisiifolia, pre-emergence, 240 h, Preemergence
How it was run: as §1

[16] = tested on: sedge, umbrella (small-flower umbrella sedge, Cyperus difformis); assay: Test B flooded paddy test; details: Cyperus difformis, 360 h, Flood, 250 g ai/ha; visually evaluated after 13 to 15 d; read-out: Plant response rating, Sedge, Umbrella (0 to 100 scale where 0 is no effect and 100 is complete control)
How it was run: (§2)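 Evaluation by eye, against controls, occurred 13–15 d post-treatment in a greenhouse, using a 0 (no effect) to 100 (complete control) scale. Application was into the paddy water, 3 cm deep over the soil, on 2-leaf plants.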

rice (Oryra sativa) = assay: Test B flooded paddy test; details: Oryza sativa, 360 h, Flood, 250 g ai/ha; visually evaluated after 13 to 15 d; read-out: Plant response rating, Rice (0 to 100 scale where 0 is no effect and 100 is complete control)
How it was run: as §2

[17] = tested on: barnyardgrass (Echinochloa crus-galli); assay: Test B flooded paddy test; details: Echinochloa crus-galli, 360 h, Flood, 250 g ai/ha; visually evaluated after 13 to 15 d; read-out: Plant response rating, Barnyardgrass (0 to 100 scale where 0 is no effect and 100 is complete control)
How it was run: as §2

[18] = tested on: ducksalad (Heteranthera limosa); assay: Test B flooded paddy test; details: Heteranthera limosa, 360 h, Flood, 250 g ai/ha; visually evaluated after 13 to 15 d; read-out: Plant response rating, Ducksalad (0 to 100 scale where 0 is no effect and 100 is complete control)
How it was run: as §2

Compound: CN1C[C@H](c2ccc(C(F)(F)F)cc2)[C@@H](C(=O)Nc2cccnc2F)C1=O [Compound 1396]
- plant injury at 31 g/ha (corn (Zea mays); 31 g ai/ha, 0 is no effect, 100 is complete control, read-out: Corn plant response rating (0 to 100 scale)): 20%
- Corn plant response rating (crop injury, 0 = no effect, 100 = complete kill) at 125 g/ha (corn (Zea mays); 125 g ai/ha, visual injury after approx. 10 d, 0 to 100 scale, 0 no effect, 100 complete control): 60%
- pest or weed control at 31 g/ha ([1]; 31 g ai/ha, 0 is no effect, 100 is complete control, read-out: Pigweed plant response rating (0 to 100 scale)): 30%
- pest or weed control at 125 g/ha ([1]; 125 g ai/ha, visual injury after approx. 10 d, 0 to 100 scale, 0 no effect, 100 complete control, read-out: Plant response rating, Pigweed): 70%
- pest or weed control at 31 g/ha ([2]; 31 g ai/ha, 0 is no effect, 100 is complete control, read-out: Ryegrass, Italian plant response rating (0 to 100 scale)): 20%
- pest or weed control at 125 g/ha ([2]; 125 g ai/ha, visual injury after approx. 10 d, 0 to 100 scale, 0 no effect, 100 complete control, read-out: Plant response rating, Ryegrass, Italian): 40%
- pest or weed control at 31 g/ha ([3]; 31 g ai/ha, 0 is no effect, 100 is complete control, read-out: Foxtail, Giant plant response rating (0 to 100 scale)): 80%
- pest or weed control at 125 g/ha ([3]; 125 g ai/ha, visual injury after approx. 10 d, 0 to 100 scale, 0 no effect, 100 complete control, read-out: Plant response rating, Foxtail, Giant): 80%
- plant injury at 31 g/ha ([4]; 31 g ai/ha, 0 is no effect, 100 is complete control, read-out: Wheat plant response rating (0 to 100 scale)): 0%
- plant injury at 125 g/ha ([4]; 125 g ai/ha, visual injury after approx. 10 d, 0 to 100 scale, 0 no effect, 100 complete control, read-out: Plant response rating, Wheat): 70%
- pest or weed control at 31 g/ha ([5]; 31 g ai/ha, 0 is no effect, 100 is complete control, read-out: Barnyardgrass plant response rating (0 to 100 scale)): 70%
- pest or weed control at 125 g/ha ([5]; 125 g ai/ha, visual injury after approx. 10 d, 0 to 100 scale, 0 no effect, 100 complete control, read-out: Plant response rating, Barnyardgrass): 80%
- pest or weed control at 31 g/ha (Kochia (Kochia scoparia) [6]; 31 g ai/ha, 0 is no effect, 100 is complete control, read-out: Kochia plant response rating (0 to 100 scale)): 60%
- pest or weed control at 125 g/ha (Kochia (Kochia scoparia) [6]; 125 g ai/ha, visual injury after approx. 10 d, 0 to 100 scale, 0 no effect, 100 complete control, read-out: Plant response rating, Kochia): 70%
- pest or weed control at 31 g/ha ([7]; 31 g ai/ha, 0 is no effect, 100 is complete control, read-out: Galium plant response rating (0 to 100 scale)): 60%
- pest or weed control at 125 g/ha ([7]; 125 g ai/ha, visual injury after approx. 10 d, 0 to 100 scale, 0 no effect, 100 complete control, read-out: Plant response rating, Galium): 70%
- pest or weed control at 31 g/ha ([8]; 31 g ai/ha, 0 is no effect, 100 is complete control, read-out: Blackgrass plant response rating (0 to 100 scale)): 0%
- pest or weed control at 125 g/ha ([8]; 125 g ai/ha, visual injury after approx. 10 d, 0 to 100 scale, 0 no effect, 100 complete control, read-out: Plant response rating, Blackgrass): 50%
- pest or weed control at 31 g/ha ([9]; 31 g ai/ha, 0 is no effect, 100 is complete control, read-out: Ragweed plant response rating (0 to 100 scale)): 0%
- pest or weed control at 125 g/ha ([9]; 125 g ai/ha, visual injury after approx. 10 d, 0 to 100 scale, 0 no effect, 100 complete control, read-out: Plant response rating, Ragweed): 50%
- pest or weed control at 31 g/ha ([10]; 31 g ai/ha, 0 to 100 scale where 0 is no effect and 100 is complete control, read-out: Pigweed plant response rating): 70%
- pest or weed control at 125 g/ha ([10]; 125 g ai/ha, 0 to 100 scale (0 no effect, 100 complete control), read-out: Plant response rating, Pigweed): 90%
- pest or weed control at 31 g/ha ([11]; 31 g ai/ha, 0 to 100 scale where 0 is no effect and 100 is complete control, read-out: Ryegrass, Italian plant response rating): 0%
- pest or weed control at 125 g/ha ([11]; 125 g ai/ha, 0 to 100 scale (0 no effect, 100 complete control), read-out: Plant response rating, Ryegrass, Italian): 40%
- pest or weed control at 31 g/ha ([12]; 31 g ai/ha, 0 to 100 scale where 0 is no effect and 100 is complete control, read-out: Foxtail, Giant plant response rating): 90%
- pest or weed control at 125 g/ha ([12]; 125 g ai/ha, 0 to 100 scale (0 no effect, 100 complete control), read-out: Plant response rating, Foxtail, Giant): 90%
- pest or weed control at 31 g/ha ([13]; 31 g ai/ha, 0 to 100 scale where 0 is no effect and 100 is complete control, read-out: Barnyardgrass plant response rating): 90%
- pest or weed control at 125 g/ha ([13]; 125 g ai/ha, 0 to 100 scale (0 no effect, 100 complete control), read-out: Plant response rating, Barnyardgrass): 90%
- pest or weed control at 31 g/ha (Kochia (Kochia scoparia) [14]; 31 g ai/ha, 0 to 100 scale where 0 is no effect and 100 is complete control, read-out: Kochia plant response rating): 30%
- pest or weed control at 125 g/ha (Kochia (Kochia scoparia) [14]; 125 g ai/ha, 0 to 100 scale (0 no effect, 100 complete control), read-out: Plant response rating, Kochia): 70%
- pest or weed control at 31 g/ha ([15]; 31 g ai/ha, 0 to 100 scale where 0 is no effect and 100 is complete control, read-out: Ragweed plant response rating): 30%
- pest or weed control at 125 g/ha ([15]; 125 g ai/ha, 0 to 100 scale (0 no effect, 100 complete control), read-out: Plant response rating, Ragweed): 60%
- pest or weed control at 250 g/ha [16]: 0%
- pest or weed control at 250 g/ha (rice (Oryra sativa)): 25%
- pest or weed control at 250 g/ha [17]: 80%
- pest or weed control at 250 g/ha [18]: 100%
